Source: patent publication US9790235B2, “MK2 inhibitors and uses thereof” (Celgene CAR LLC, priority 2014, dated 2017)
Read-outs that look alike come from different tables or passages of the source.

Legend:
[1] = target: MK2 (Homo sapiens (Human), UniProt P49137)
Procedure: Aliquots of the resulting mixture (6 μL each) were diluted with 0.2% trifluoroacetic acid (TFA, 10 μL) prior to micro C4 ZipTipping directly onto the MALDI target using sinapinic acid as the desorption matrix (10 mg/ml in 0.1% TFA:acetonitrile 50:50, v/v). The centroid mass of the target protein in the control sample was compared with the centroid mass of the target protein incubated with compound. A shift in the centroid mass of the treated protein compared to the untreated protein was divided by the molecular weight of the compound. This number corresponds to the percentage of modified protein (a measure of the proportion of total target protein covalently bound to the test compound) after one hour incubation.
3 μL of magnetic Ni-NTA beads were added to the 6 μL aliquots of sample, washed, eluted with 0.2% trifluoroacetic acid (TFA, 2 μL), and spotted directly onto the MALDI target using sinapinic acid as the desorption matrix (10 mg/ml in 0.1% TFA:acetonitrile 50:50, v/v). The centroid mass of the target protein in the control sample was compared with the centroid mass of the target protein incubated with compound. A shift in the centroid mass of the treated protein compared to the untreated protein was divided by the molecular weight of the compound. This number corresponds to the percentage of modified protein (a measure of the proportion of total target protein covalently bound to the test compound) after one hour incubation.

[2] = target: p38α activated, mitogen-activated protein kinase-activated protein kinase 2 (MAPKAP-K2 or MK2) enzyme (Homo sapiens (Human), UniProt P49137); test: MK2 Omnia continuous-read kinase assay for compound potency; type: biochemical; settings: [MK-2]=0.4 nM, [ATP]=10 μM, [ST3-Sox]=10 μM; read-out: MK2 IC50
p38α activated, mitogen-activated protein kinase-activated protein kinase 2 (MAPKAP-K2 or MK2) enzyme, sequence (P49137 whole entry): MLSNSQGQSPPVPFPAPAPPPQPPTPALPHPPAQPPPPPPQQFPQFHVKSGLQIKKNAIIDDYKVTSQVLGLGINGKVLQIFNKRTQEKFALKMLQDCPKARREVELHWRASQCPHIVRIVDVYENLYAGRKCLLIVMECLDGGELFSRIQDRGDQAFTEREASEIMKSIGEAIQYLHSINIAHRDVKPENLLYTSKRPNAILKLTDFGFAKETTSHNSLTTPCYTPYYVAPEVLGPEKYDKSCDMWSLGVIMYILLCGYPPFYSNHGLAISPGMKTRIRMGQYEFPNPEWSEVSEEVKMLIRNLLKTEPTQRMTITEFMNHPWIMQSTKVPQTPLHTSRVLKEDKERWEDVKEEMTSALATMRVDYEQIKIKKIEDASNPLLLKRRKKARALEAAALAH
Source text: Mitogen-Activated Protein Kinase-Activated Protein Kinase 2 Omnia® Assay for Compound Potency Assessment:
The protocol below describes a continuous-read kinase assay optimized to measure potency of compounds against p38α activated, mitogen-activated protein kinase-activated protein kinase 2 (MAPKAP-K2 or MK2) enzyme. Further details of this assay are described by Life Technologies, Carlsbad, Calif. on their website at the following URL: http://tools.lifetechnologies.com/content/sfs/manuals/omnia_kinase_assay_man.pdf.
[Reagent] used: • [MK-2]=0.4 nM, • [ATP]=10 μM and • [ST3-Sox]=10 μM (ATP^appKM=10 μM)
Kinase reactions were started with the addition of 45 μL of the ATP-peptide substrate S/T3-Sox mix and monitored every 71 seconds for 120 minutes at λex360/λem485 in a Synergy H4 plate reader from BioTek (Winooski, Vt.) at room temperature.
Background signals from the no enzyme control wells were subtracted from all progress curves. The initial linear portions of the net progress curves were fit according to a linear equation to yield the slope and percentage of inhibition (% inhibition) at each compound concentration. The net progress curves obtained during the first two hours of reactions were also fit according to an ascending single-exponential equation (Eq. 1) to yield kobs values at each compound concentration. Plots of % Inhibition versus inhibitor concentrations were fit according to a dose-response equation (Eq. 2) to generate IC50 and Hill slope values while plots of kobs versus inhibitor concentration were fit according to Equation 3 (Eq. 3) to generate apparent kinact/KI values using the GraphPad PRISM software (Version 6.00; GraphPad San Diego, Calif.).
[formula] where F is the fluorescence intensity from the plate reader, V0 is a constant reflecting the relationship between the instrument readout and product concentration, t is time, e is Euler's number, and kobs is the observed inactivation rate constant.
[formula] where % Inhibition is percentage of inhibition, IC50 is half maximal inhibitory concentration, [I] is the inhibitor concentration, and n is the Hill slope.

[3] = percentage of modified protein after 60 minutes at room temperature, 10-fold excess of compound, MALDI (I-1 to I-50), magnetic bead MALDI (I-51 to I-129)
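Wherever Mass Modification is given: covalent binding read from centroid mass shift of compound-treated versus untreated intact MK2, shift divided by compound molecular weight, giving fraction of total protein bound.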

MK2, sequence (P49137 whole entry): as above

Row | IC50 [2] | SMILES | Mass Modification [1, 3] | Mass Modification [1]
1 |  | C[C@@H]1CNc2c(sc3ccc4nc(Nc5cc(F)nc(F)c5)ccc4c23)C(=O)N1 [I-6, (R)-3-((2,6-difluoropyridin-4-yl)amino)-10-methyl-9,10,11,12-tetrahydro-8H-[1,4]diazepino[5′,6′:4,5]thieno[3,2-f]quinolin-8-one] | G (mass modification ≦30%) | 
2 |  | C[C@@H]1CNc2c(sc3ccc4nc(Nc5nc(Cl)ncc5C(=O)NC5CCN(C)CC5)ccc4c23)C(=O)N1 [I-19, (R)-2-chloro-4-((10-methyl-8-oxo-9,10,11,12-tetrahydro-8H-[1,4]diazepino-[5′,6′:4,5]thieno[3,2-f]quinolin-3-yl)amino)-N-(1-methylpiperidin-4-yl)pyrimidine-5-carboxamide] |  | G (key: E: mass modification of ≧70%; F: mass modification of 31-69%; G: mass modification ≦30%)
3 | < 100 nM | CCOC(=O)c1cnc(Nc2ccc3c(ccc4sc5c(c43)NC[C@@H](C)NC5=O)n2)nc1Cl [I-23, (R)-ethyl 4-chloro-2-((10-methyl-8-oxo-9,10,11,12-tetrahydro-8H-[1, 4]diazepino[5′,6′:4,5]thieno[3,2-f]quinolin-3-yl)amino)pyrimidine-5-carboxylate] | G (mass modification ≦30%) | 
4 |  | C[C@@H]1CNc2c(sc3ccc4nc(Nc5cc(F)nc(OCCN(C)C)n5)ccc4c23)C(=O)N1 [I-32, (R)-3-((2-(2-(dimethylamino)ethoxy)-6-fluoropyrimidin-4-yl)amino)-10-methyl-9,10,11,12-tetrahydro-8H-[1,4]diazepino[5′,6′:4,5]thieno[3,2-f]quinolin-8-one] | F (mass modification of 31-69%) | 
5 |  | C[C@@H]1CNc2c(sc3ccc4nc(Nc5cc(F)nc(OC6COC6)n5)ccc4c23)C(=O)N1 [I-37, (R)-3-((6-fluoro-2-(oxetan-3-yloxy)pyrimidin-4-yl)amino)-10-methyl-9,10,11,12-tetrahydro-8H-[1,4]diazepino[5′,6′:4,5]thieno[3,2-f]quinolin-8-one] | F (mass modification of 31-69%) | 
6 |  | C[C@@H]1CNc2c(sc3ccc4nc(Nc5cc(F)nc(OCC6(C)COC6)n5)ccc4c23)C(=O)N1 [I-39, (R)-3-((6-fluoro-2-((3-methyloxetan-3-yl)methoxy)pyrimidin-4-yl)amino)-10-methyl-9,10,11,12-tetrahydro-8H-[1,4]diazepino[5′,6′:4,5]thieno[3,2-f]quinolin-8-one] | G (mass modification ≦30%) | 
7 |  | C[C@@H]1CNc2c(sc3ccc4nc(Nc5cc(F)nc(O[C@H]6CCOC6)n5)ccc4c23)C(=O)N1 [I-40, (R)-3-((6-fluoro-2-(((S)-tetrahydrofuran-3-yl)oxy)pyrimidin-4-yl)amino)-10-methyl-9,10,11,12-tetrahydro-8H-[1,4]diazepino[5′,6′:4,5]thieno[3,2-f]quinolin-8-one] | G (mass modification ≦30%) | 
8 |  | C[C@@H]1CNc2c(sc3ccc4nc(Nc5cc(F)nc(O[C@@H]6CCOC6)n5)ccc4c23)C(=O)N1 [I-41, (R)-3-((6-fluor-2-(((R)-tetrahydrofuran-3-yl)oxy)pyrimidin-4-yl)amino)-10-methyl-9,10,11,12-tetrahydro-8H-[1,4]diazepino[5′,6′:4,5]thieno[3,2-f]quinolin-8-one] | G (mass modification ≦30%) | 
9 |  | C[C@@H]1CNc2c(sc3ccc4nc(Nc5nc(F)cc(OCC6(C)COC6)n5)ccc4c23)C(=O)N1 [I-43, (R)-3-((4-fluoro-6-((3-methyloxetan-3-yl)methoxy)pyrimidin-2-yl)amino)-10-methyl-9,10,11,12-tetrahydro-8H-[1,4]diazepino[5′,6′:4,5]thieno[3,2-f]quinolin-8-one] | G (mass modification ≦30%) | 
10 |  | C[C@@H]1CNc2c(sc3ccc4nc(Nc5nc(F)cc(O[C@@H]6CCOC6)n5)ccc4c23)C(=O)N1 [I-46, (R)-3-((4-fluoro-6-(((R)-tetrahydrofuran-3-yl)oxy)pyrimidin-2-yl)amino)-10-methyl-9,10,11,12-tetrahydro-8H-[1,4]diazepino[5′,6′:4,5]thieno[3,2-f]quinolin-8-one] | F (mass modification of 31-69%) | 
11 |  | C[C@@H]1CNc2c(sc3ccc4nc(Nc5cc(F)nc(O[C@@H]6CCN(C)C6)n5)ccc4c23)C(=O)N1 [I-49, (R)-3-((6-fluor-2-(((R)-1-methylpyrrolidin-3-yl)oxy)pyrimidin-4-yl)amino)-10-methyl-9,10,11,12-tetrahydro-8H-[1,4]diazepino[5′,6′:4,5]thieno[3,2-f]quinolin-8-one] | G (mass modification ≦30%) | 
12 |  | C[C@@H]1CNc2c(sc3ccc4nc(Nc5nc(F)cc(O[C@H]6CCOC6)n5)ccc4c23)C(=O)N1 [I-50, (R)-3-((4-fluoro-6-(((S)-tetrahydrofuran-3-yl)oxy)pyrimidin-2-yl)amino)-10-methyl-9,10,11,12-tetrahydro-8H-[1,4]diazepino[5′,6′:4,5]thieno[3,2-f]quinolin-8-one] | F (mass modification of 31-69%) | 
13 | < 100 nM | COCCOc1cc(Cl)nc(Nc2ccc3c(ccc4sc5c(c43)NC[C@@H](C)NC5=O)n2)n1 [I-69, (R)-3-((4-chloro-6-(2-methoxyethoxy)pyrimidin-2-yl)amino)-10-methyl-9,10,11,12-tetrahydro-8H-[1,4]diazepino[5′,6′:4,5]thieno[3,2-f]quinolin-8-one] | G (mass modification ≦30%) | 
14 |  | C[C@@H]1CNc2c(sc3ccc4nc(Oc5nc(Cl)nc(N6CCC(F)(F)C6)n5)ccc4c23)C(=O)N1 [I-77, (R)-3-((4-chloro-6-(3,3-difluoropyrrolidin-1-yl)-1,3,5-triazin-2-yl)oxy)-10-methyl-9,10,11,12-tetrahydro-8H-[1,4]diazepino[5′,6′:4,5]thieno[3,2-f]quinolin-8-one] | E (mass modification of ≧70%) | 
15 |  | C[C@@H]1CNc2c(sc3ccc4nc(Oc5nc(Cl)nc(N6CCCC(F)(F)C6)n5)ccc4c23)C(=O)N1 [I-78, (R)-3-((4-chloro-6-(3,3-difluoropiperidin-1-yl)-1,3,5-triazin-2-yl)oxy)-10-methyl-9,10,11,12-tetrahydro-8H-[1,4]diazepino[5′,6′:4,5]thieno[3,2-f]quinolin-8-one] | E (mass modification of ≧70%) | 
16 | > 1000 nM | CC(C)CN(Cc1cnc(Cl)nc1Oc1ccc2c(ccc3sc4c(c32)NC[C@@H](C)NC4=O)n1)CC(C)C [I-88, (R)-3-((2-chloro-5-((diisobutylamino)methyl)pyrimidin-4-yl)oxy)-10-methyl-9,10,11,12-tetrahydro-8H-[1,4]diazepino[5′,6′:4,5]thieno[3,2-f]quinolin-8-one] | F (mass modification of 31-69%) | 
17 |  | C[C@@H]1CNc2c(sc3ccc4nc(Oc5nc(Cl)ncc5CNC(C)(C)C)ccc4c23)C(=O)N1 [I-102, (R)-3-((5-((tert-butylamino)methyl)-2-chloropyrimidin-4-yl)oxy)-10-methyl-9,10,11,12-tetrahydro-8H-[1,4]diazepino[5′,6′:4,5]thieno[3,2-f]quinolin-8-one] | E (mass modification of ≧70%) | 
18 | 101 to 500 nM | C[C@@H]1CNc2c(sc3ccc4nc(Oc5nc(Cl)nc6c5CCCC6)ccc4c23)C(=O)N1 [I-109, (R)-3-((2-chloro-5,6,7,8-tetrahydroquinazolin-4-yl)oxy)-10-methyl-9,10,11,12-tetrahydro-8H-[1,4]diazepino[5′,6′:4,5]thieno[3,2-f]quinolin-8-one] |  | 

Row | SMILES | IC50 [2] | Mass Modification [1, 3] | Mass Modification [1]
19 | CCOC(=O)c1cnc(SC)nc1Nc1ccc2c(ccc3sc4c(c32)NC[C@@H](C)NC4=O)n1 [I-12, (R)-ethyl 4-((10-methyl-8-oxo-9,10,11,12-tetrahydro-8H-[1,4]diazepino[5′,6′:4,5]thieno[3,2-f]quinolin-3-yl)amino)-2-(methylthio)pyrimidine-5-carboxylate] | 501 to 999 nM |  | G (key: E: mass modification of ≧70%; F: mass modification of 31-69%; G: mass modification ≦30%)
